# “And” between values parts separate entries of the source, which are not always exact repeats. Equal entries are not always repeated. Where two headings read alike, the source gives them in different places.
# What was measured:
# [1] = test system: OVISE (JCRB1043, CCNE1-amplified); test: OVISE EdU incorporation cell proliferation assay (CDK2-dependent); type: cell-based; conditions: for IC50 / FS SKOV-3/OVISE / FS p-H3/OVISE: Table O; for IC50: cellular assay, read-out: CDK2 OVISE IC50; for FS SKOV-3/OVISE / FS p-H3/OVISE: fold selectivity; for FS SKOV-3/OVISE: cellular SKOV-3 IC50 over OVISE IC50; for FS p-H3/OVISE: cellular p-H3 IC50 over OVISE IC50
# How it was run: (§1)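 Cells in RPMI/10% FBS dosed with compound (0.5% DMSO final) for 16 h at 37 °C, 5% CO2, then EdU 0.5 μM final for 8 h before fixation and imaging. IC50 from 4-parameter logistic fit of EdU-positive cell fraction versus dose.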
# [2] = target: T1, Cyclin Dependent Kinase 4/Cyclin D3 (CDK4-cycD3) (Homo sapiens, UniProt P11802); test: CDK4-cycD3 TR-FRET (LANCE) enzyme assay; type: biochemical; conditions: for Ki: Table O, enzymatic assay
# T1 construct: purchased Carna Biosciences 04-105
# T1 sequence (P11802 whole entry): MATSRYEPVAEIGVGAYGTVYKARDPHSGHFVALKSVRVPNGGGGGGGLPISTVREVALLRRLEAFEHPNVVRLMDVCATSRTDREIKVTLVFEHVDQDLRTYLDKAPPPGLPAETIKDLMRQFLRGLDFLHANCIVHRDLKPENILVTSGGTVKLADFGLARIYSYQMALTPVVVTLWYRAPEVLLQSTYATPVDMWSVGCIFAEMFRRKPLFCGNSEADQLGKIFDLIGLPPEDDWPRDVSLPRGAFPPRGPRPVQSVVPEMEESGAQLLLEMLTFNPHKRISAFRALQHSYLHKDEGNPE
# T1 sequence (P30281 whole entry partner): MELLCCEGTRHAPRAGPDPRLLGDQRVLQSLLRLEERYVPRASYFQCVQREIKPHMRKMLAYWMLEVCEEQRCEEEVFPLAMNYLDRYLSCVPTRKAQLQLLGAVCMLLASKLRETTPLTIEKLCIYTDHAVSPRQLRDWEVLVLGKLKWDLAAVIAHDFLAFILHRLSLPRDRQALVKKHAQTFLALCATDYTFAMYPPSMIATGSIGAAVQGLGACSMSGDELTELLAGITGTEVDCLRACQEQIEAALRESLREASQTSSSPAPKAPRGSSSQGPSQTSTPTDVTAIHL
# How it was run: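 Compound dose responses pre-incubated 30 min with enzyme mix in 50 mM HEPES pH 7.5, 10 mM MgCl2, 2 mM TCEP, 0.05% BGG, 0.01% Brij 35. Reaction quenched with EDTA (15 mM final); Eu-anti-phospho-4E-BP1 TR-FRET detection, acceptor/donor ratio. Ki derived by Morrison equation.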
# [3] = target: T2, Cyclin Dependent Kinase 1/Cyclin A2 (CDK1-cycA2) (Homo sapiens, UniProt P06493); test: CDK1-cycA2 TR-FRET (Lance) enzyme assay; type: biochemical; conditions: for Ki: Table O, enzymatic assay; for FS CDK1/CDK2: fold selectivity, enzymatic Ki ratio
# T2 construct: purchased ProQinase 0134-0054-1
# T2 sequence (P06493 whole entry): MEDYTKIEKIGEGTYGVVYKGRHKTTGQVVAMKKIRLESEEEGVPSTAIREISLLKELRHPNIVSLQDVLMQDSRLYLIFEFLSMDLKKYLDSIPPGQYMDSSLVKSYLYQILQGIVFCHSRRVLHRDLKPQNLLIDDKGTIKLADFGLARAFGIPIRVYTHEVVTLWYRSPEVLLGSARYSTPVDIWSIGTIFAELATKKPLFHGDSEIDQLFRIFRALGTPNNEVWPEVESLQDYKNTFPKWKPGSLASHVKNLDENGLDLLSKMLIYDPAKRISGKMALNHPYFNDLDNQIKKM
# T2 sequence (P20248 whole entry partner): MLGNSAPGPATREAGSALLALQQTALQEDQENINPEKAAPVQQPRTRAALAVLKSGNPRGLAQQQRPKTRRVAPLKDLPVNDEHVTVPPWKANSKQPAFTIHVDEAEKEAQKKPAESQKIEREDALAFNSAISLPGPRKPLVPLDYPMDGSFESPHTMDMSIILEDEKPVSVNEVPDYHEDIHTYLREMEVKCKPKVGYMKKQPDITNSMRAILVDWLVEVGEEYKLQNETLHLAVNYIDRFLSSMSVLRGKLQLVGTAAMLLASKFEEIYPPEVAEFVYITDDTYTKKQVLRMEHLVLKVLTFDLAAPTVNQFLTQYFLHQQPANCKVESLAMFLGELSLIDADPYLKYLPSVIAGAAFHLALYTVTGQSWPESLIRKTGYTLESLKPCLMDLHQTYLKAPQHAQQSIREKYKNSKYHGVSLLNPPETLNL
# How it was run: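 Human CDK1/cyclin A2 pre-incubated 30 min with compound dose responses in 50 mM HEPES pH 7.5, 10 mM MgCl2, 2 mM TCEP, 0.05% BGG, 0.01% Brij 35. Reaction quenched with EDTA (15 mM final); TR-FRET readout using Eu-anti-phospho-4E-BP1, acceptor/donor ratio. Inhibition constants from Morrison equation.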
# HCT116 cells = test: p-H3 HCT-116 mitotic release cell proliferation assay (cellular CDK1); type: cell-based; conditions: for IC50: Homo sapiens, HCT-116, Table O, cellular assay, read-out: CDK1 p-H3 IC50
# How it was run: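 HCT116 cells arrested 16 h with 500 nM nocodazole, then exposed to compound for 4 h at 37 °C (0.1% DMSO). Lysates read by HTRF/FRET with donor and acceptor phospho-Histone H3 (Ser10) antibodies, ≥2 h at room temperature; CDK1 inhibition seen as loss of p-H3 on mitotic release.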
# [4] = target: T3, Cyclin Dependent Kinase 2/Cyclin E1 (CDK2-cycE1) (Homo sapiens, UniProt P24941); test: CDK2-cycE1 TR-FRET (LANCE) enzyme assay; type: biochemical; conditions: for FS CDK1/CDK2 / FS CDK4/CDK2: fold selectivity; for FS CDK1/CDK2: enzymatic CDK1 Ki over CDK2 Ki; for FS CDK4/CDK2: enzymatic CDK4 Ki over CDK2 Ki
# T3 construct: purchased ProQinase 0050-0055-1
# How it was run: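 Compound dose responses pre-incubated 30 min with CDK2-cycE1 in 50 mM HEPES pH 7.5, 10 mM MgCl2, 2 mM TCEP, 0.05% BGG, 0.01% Brij 35. Reaction quenched with EDTA (15 mM final), phospho-MBP detected by Eu-anti-phospho-MBP TR-FRET (acceptor/donor ratio). Inhibition constants from Morrison equation.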
# SKOV-3 (ATCC HTB-77) = test: SKOV-3 EdU incorporation cell proliferation assay (CDK4/6-dependent); type: cell-based; conditions: for IC50: Homo sapiens, SK-OV-3, Table O, cellular assay, read-out: CDK4/6 SKOV-3 IC50; for FS SKOV-3/OVISE: fold selectivity
# How it was run: as §1
# [5] = Table O, enzymatic assay, read-out: CDK2 Ki
# [6] = SKOV-3/OVISE fold-selectivity cellular assay data
compound,measurement,setting,value
"CC(C)(C)NC(=O)O[C@@H]1CC[C@H](c2cc(Nc3ccnnc3)n[nH]2)C1 [Example 4K, (1R,3S)-3-(3-(pyridazin-4-ylamino)-1H-pyrazol-5-yl)cyclopentyl tert-butylcarbamate]",CDK2 cell potency compared with Comparator E,[1]; CDK2 OVISE cellular assay data,more potent CDK2 cell inhibitors compared to Comparator E
same,IC50,[1],78 nM
same,FS SKOV-3/OVISE,[1],71
same,FS p-H3/OVISE,[1],2.1
same,CDK2 OVISE IC50 fold change in potency versus Comparator D,"[1]; Table R, in brackets after OVISE IC50",49 fold
same,CDK2 OVISE IC50 fold change in potency versus Comparator E,"[1]; Table S, in brackets after OVISE IC50",2.2 fold
same,CDK2 OVISE IC50 fold potency relative to Comparator A,"[1]; first bracket in OVISE IC50 cell, Table P",0.5 fold
same,CDK2 OVISE IC50 fold potency relative to Comparator B,"[1]; second bracket in OVISE IC50 cell, Table P",1.8 fold
same,Ki,[2],52 nM
same,"FS CDK4/CDK2 increased over Comparator D, (+) sign",[2]; Table R,(+)
same,"FS CDK4/CDK2 increased over Comparator E, (+) sign",[2]; Table S,(+)
same,Ki,[3],27 nM
same,"FS CDK1/CDK2 increased over Comparator D, (+) sign",[3]; Table R,(+)
same,FS CDK1/CDK2,[3]; Table R,54
same,FS CDK1/CDK2,[3]; Table S,54
same,FS CDK1/CDK2,[3]; Table P,54
same,"pH3/OVISE fold selectivity (CDK1 over CDK2, cellular assay data)",HCT116 cells,2.1 fold
same,IC50,HCT116 cells,160 nM
same,FS p-H3/OVISE compared with Comparator A,"HCT116 cells; first sign in cell, Table P",(+)
same,FS p-H3/OVISE,"HCT116 cells; fold selectivity, cellular IC50 ratio (CDK1 over CDK2), Table P",2.1
same,FS p-H3/OVISE compared with Comparator B,"HCT116 cells; second sign in cell, Table P",(+)
same,Ki,[4]; [5],0.45 nM
same,FS CDK1/CDK2,[4]; Table O,54
same,FS CDK4/CDK2,[4]; Table O,104
same,Ki,"[4]; Table R, enzymatic assay, read-out: CDK2 Ki",0.45 nM
same,CDK2 Ki fold change in potency versus Comparator D,"[4]; Table R, in brackets after CDK2 Ki",6 fold
same,Ki,"[4]; Table S, enzymatic assay, read-out: CDK2 Ki",0.45 nM
same,CDK2 Ki fold change in potency versus Comparator E,"[4]; Table S, in brackets after CDK2 Ki",1.2 fold
same,Ki,"[4]; enzymatic assay, Table P, read-out: CDK2 Ki",0.45 nM
same,CDK2 Ki fold potency relative to Comparator A,"[4]; first bracket in CDK2 Ki cell, Table P",0.4 fold
same,Ki,[4]; read-out: CDK2 activity / potency (enzymatic assay),≤ 1 nM and 0.45 nM
same,CDK2 Ki fold potency relative to Comparator B,"[4]; second bracket in CDK2 Ki cell, Table P",2 fold
same,IC50,SKOV-3 (ATCC HTB-77),5500 nM
same,CDK2 selectivity over CDK4/6 compared with Comparators A and B,SKOV-3 (ATCC HTB-77); [6],at least three times more CDK2 selective over CDK4/6
same,selectivity for CDK2 over CDK4 compared with Comparator E,SKOV-3 (ATCC HTB-77); [6],increase in selectivity for CDK2 over CDK4
same,"FS SKOV-3/OVISE increased over Comparator D, (+) sign",SKOV-3 (ATCC HTB-77); Table R,(+)
same,FS SKOV-3/OVISE,"SKOV-3 (ATCC HTB-77); Table R, cellular IC50 ratio",71
same,"FS SKOV-3/OVISE increased over Comparator E, (+) sign",SKOV-3 (ATCC HTB-77); Table S,(+)
same,FS SKOV-3/OVISE,"SKOV-3 (ATCC HTB-77); Table S, cellular IC50 ratio",71
same,FS SKOV-3/OVISE compared with Comparator A,"SKOV-3 (ATCC HTB-77); first sign in cell, Table P",(+)
same,FS SKOV-3/OVISE,"SKOV-3 (ATCC HTB-77); cellular IC50 ratio (CDK4/6 over CDK2), Table P",71
same,FS SKOV-3/OVISE compared with Comparator B,"SKOV-3 (ATCC HTB-77); second sign in cell, Table P",(+)
"Cc1nc(S(C)(=O)=O)ccc1Nc1cc([C@H]2CC[C@@H](OC(=O)NC(C)(C)C)C2)[nH]n1 [Example 4L, (1R,3S)-3-(3-((2-methyl-6-(methylsulfonyl)pyridin-3-yl)amino)-1H-pyrazol-5-yl)cyclopentyl tert-butylcarbamate]",IC50,[1],310 nM
same,FS SKOV-3/OVISE,[1],52
same,FS p-H3/OVISE,[1],1
same,Ki,[2],470 nM
same,Ki,[3],95 nM
same,IC50,HCT116 cells,310 nM
same,Ki,[4]; [5],2.9 nM
same,FS CDK1/CDK2,[4]; Table O,33
same,FS CDK4/CDK2,[4]; Table O,162
same,IC50,SKOV-3 (ATCC HTB-77),16000 nM
"Cn1nc(Nc2cc([C@H]3CC[C@@H](OC(=O)NC(C)(C)C(F)F)C3)[nH]n2)ccc1=O [Example 5C, (1R,3S)-3-(3-((1-methyl-6-oxo-1,6-dihydropyridazin-3-yl)amino)-1H-pyrazol-5-yl)cyclopentyl (1,1-difluoro-2-methylpropan-2-yl)carbamate]",IC50,[1],63 nM
same,FS SKOV-3/OVISE,[1],84
same,FS p-H3/OVISE,[1],2.4
same,Ki,[2],130 nM
same,Ki,[3],9.4 nM
same,IC50,HCT116 cells,150 nM
same,Ki,[4]; [5],0.3 nM
same,FS CDK1/CDK2,[4]; Table O,31
same,FS CDK4/CDK2,[4]; Table O,433
same,IC50,SKOV-3 (ATCC HTB-77),5300 nM
